From paper PMC11359332, “Characterization of Neonicotinoid Metabolites by Cytochrome P450-Mediated Metabolism in Poultry” (Toxics, 2024)

Key:
[1] = test system: nicotinic acetylcholine receptors; settings: cited from earlier work
[2] = test system: rat liver microsomes (CYP); experiment: In vitro CYP metabolism of neonicotinoids, rat liver microsomes, metabolites quantified by LC/MS/MS; assay type: in vitro ADME
Method: (§1) All experimental protocols and animal-handling procedures were performed following the guidelines for animal experiments and approved by the Animal Ethics Research Committee of the Faculty of Veterinary Medicine, […] University, Bangkok, Thailand (Approval number: […]-026). Liver samples of chickens (Gallus domesticus, n = 5), ducks (Anas platyrhynchos, n = 5), […] domesticus, n = 3), quails (Coturnix coturnix, n = 5), and rats (Rattus norvegicus, n = 3) were obtained from the previous study. The liver microsomal fractions used in this study were prepared by the method of Omura and Sato [28] with slight modifications. Briefly, liver sample was homogenized with 0.1 M potassium phosphate buffer (KPB, pH 7.4) and centrifuged at 9000× g at 4 °C for 20 min. The supernatant was collected and centrifuged twice at 105,000× g at 4 °C for 60 min. Microsomal pellets were homogenized with 0.1 M KPB and measured for protein concentrations using the BCA protein assay kit (Thermo Fisher Scientific, Rockford, IL, USA) before being frozen using liquid nitrogen, for storage at -80 °C until analysis. The assay of neonicotinoid metabolism using liver microsome was modified from that of a previous study. Since we had insufficient liver samples to produce the microsomes of geese and quails, the substrates of imidacloprid and clothianidin were not applied for those microsome reactions. However, microsomes of chicken, ducks, and rats were used for all substrate reactions. […] Then, the reaction was initiated by adding a mixture of G6PDH (2 IU/mL) and β-NADPH (0.5 mM), and continuously incubating for 30 min. Then, 0.1% formic acid in acetonitrile was added to stop the reaction. After that, the reaction sample was placed on ice for 15 min before centrifugation at 12,000 g for 10 min. The supernatant (100 μL) was collected and then spiked with neonicotinoid internal standard mixtures (50 μL), then evaporated using a centrifugal evaporator (CVE-200D with UT-2000, EYELA, Tokyo, Japan). The dried sample was re-dissolved with 20% methanol (v/v) and transferred into vials for chemical analysis. […] For all analyses, mobile phase A consisted of 0.1% formic acid + 10 mM ammonium acetate in distilled water and mobile phase B consisted of 0.1% formic acid + 10 mM ammonium acetate in 100% MeOH. The injection volume of 5 μL, the flow rate of 0.40 mL/min with gradient elution, and a column temperature of 45 °C were used for all experiments. The ion signals were acquired with multiple-reaction monitoring (MRM) in positive ionization mode. In the current study, the liver microsome was spiked with deuterium-labelled internal standards (ISs) of the target neonicotinoids before the extraction and purification processes. […] The calibration curves were created using 10-point calibration standards ranging from 0.05 to 20 ng/mL. […] The accuracy of the current analytical method was validated and determined using matrix-spiked neonicotinoid standards at two concentrations, 1 ng/mL and 10 ng/mL. The thirteen target compounds were detected with recovery rates ranging from 87 to 101% at 1 ng/mL, and 86 to 116% at 10 ng/mL. […] In the current study, all the assays were performed in duplicates and the negative controls (the reaction mixture without substrate) were prepared for each sample. […] Statistical analyses were conducted using the JMP […] software (SAS Institute, Carry, NC, USA). One-way ANOVA with post-hoc Tukey-Kramer multiple comparison test was used to compare the Vmax/Km ratio among species. All results were presented as the mean ± standard deviation (SD).

[3] = test system: duck liver microsomes (CYP); experiment: In vitro CYP metabolism of neonicotinoids, duck liver microsomes, metabolites quantified by LC/MS/MS; assay type: in vitro ADME, duck (Anas platyrhynchos)
Method: as §1

[4] = test system: chicken liver microsomes (CYP); experiment: In vitro CYP metabolism of neonicotinoids, chicken liver microsomes, metabolites quantified by LC/MS/MS; assay type: in vitro ADME, chicken (Gallus domesticus)
Method: as §1

[5] = test system: liver microsomes from various species; experiment: Metabolite screening by LC/Q-TOF in reaction mixtures using liver microsomes from various species; assay type: in vitro ADME, chicken, duck, goose, quail, rat
Method: The assay of neonicotinoid metabolism using liver microsome was modified from that of a previous study. Since we had insufficient liver samples to produce the microsomes of geese and quails, the substrates of imidacloprid and clothianidin were not applied for those microsome reactions. However, microsomes of chicken, ducks, and rats were used for all substrate reactions. […] Then, the reaction was initiated by adding a mixture of G6PDH (2 IU/mL) and β-NADPH (0.5 mM), and continuously incubating for 30 min. Then, 0.1% formic acid in acetonitrile was added to stop the reaction. After that, the reaction sample was placed on ice for 15 min before centrifugation at 12,000 g for 10 min. The supernatant (100 μL) was collected and then spiked with neonicotinoid internal standard mixtures (50 μL), then evaporated using a centrifugal evaporator (CVE-200D with UT-2000, EYELA, Tokyo, Japan). The dried sample was re-dissolved with 20% methanol (v/v) and transferred into vials for chemical analysis.
A liquid chromatograph quadrupole time-of-flight (6546 LC/Q-TOF; Agilent Technologies, Santa Clara, CA, USA) operated with a 1.8 μm Eclipse Plus C18 RRHD analytical column (2.1 × 150 mm; Agilent Technologies, CA, USA) at a flow rate of 0.25 mL/min was used in the screening test to search for chromatographic peaks with the exact molecular mass of the possible neonicotinoid metabolites (Table S3). The mobile phases were 10 mM ammonium formate in water (A) and 10 mM ammonium formate in MeOH (B). The gradient elution of mobile phase B was set as follows: 2% (0–1 min), 100% (1–30 min), continued 100% (30–39 min), and a 4 min post-run at 2%. An injection volume was 5 μL and the column temperature was maintained at 45 °C. The expected formulas of potential metabolites of the four neonicotinoids were derived from previous publications on neonicotinoid metabolites in environment samples [29, 30] and in animals.
Several neonicotinoid metabolites were formed in our current in vitro biotransformation assays (Table 1).

fish leukocytes = test system: fish leukocytes; design: method as in PMID 38594566; settings: compared with parent substances; cited from earlier work
[6] = test system: quail liver microsomes (CYP); experiment: In vitro CYP metabolism of neonicotinoids, quail liver microsomes, metabolites quantified by LC/MS/MS; assay type: in vitro ADME, quail (Coturnix coturnix)
Method: (§2) All experimental protocols and animal-handling procedures were performed following the guidelines for animal experiments and approved by the Animal Ethics Research Committee of the Faculty of Veterinary Medicine, […] University, Bangkok, Thailand (Approval number: […]-026). Liver samples of chickens (Gallus domesticus, n = 5), ducks (Anas platyrhynchos, n = 5), […] domesticus, n = 3), quails (Coturnix coturnix, n = 5), and rats (Rattus norvegicus, n = 3) were obtained from the previous study. The liver microsomal fractions used in this study were prepared by the method of Omura and Sato [28] with slight modifications. Briefly, liver sample was homogenized with 0.1 M potassium phosphate buffer (KPB, pH 7.4) and centrifuged at 9000× g at 4 °C for 20 min. The supernatant was collected and centrifuged twice at 105,000× g at 4 °C for 60 min. Microsomal pellets were homogenized with 0.1 M KPB and measured for protein concentrations using the BCA protein assay kit (Thermo Fisher Scientific, Rockford, IL, USA) before being frozen using liquid nitrogen, for storage at -80 °C until analysis. […] The accuracy of the current analytical method was validated and determined using matrix-spiked neonicotinoid standards at two concentrations, 1 ng/mL and 10 ng/mL. The thirteen target compounds were detected with recovery rates ranging from 87 to 101% at 1 ng/mL, and 86 to 116% at 10 ng/mL. […]

[7] = test system: goose liver microsomes (CYP); experiment: In vitro CYP metabolism of neonicotinoids, goose liver microsomes, metabolites quantified by LC/MS/MS; assay type: in vitro ADME, goose (Anser domesticus)
Method: as §2

[8] = clothianidin to clothianidin-urea
[9] = clothianidin to dn-clothianidin
[10] = clothianidin to dm-clothianidin
[11] = imidacloprid to 4OH-imidacloprid
[12] = imidacloprid to 5OH-imidacloprid
[13] = imidacloprid to dn-imidacloprid
[14] = imidacloprid to imidacloprid-olefin

## CN/C(=N\[N+](=O)[O-])NCc1cnc(Cl)s1 [Clothianidin]
[1]
  Affinity to nicotinic acetylcholine receptors: high affinity to nicotinic acetylcholine receptors
[2]; [8]
  Vmax: 0.012 ± 0.002 pmol/min/mg protein
[2]; [9]
  Vmax: 0.2 ± 0.0 pmol/min/mg protein
[3]; [8]
  Vmax: 0.005 ± 0.001 pmol/min/mg protein
[3]; [10]
  Vmax: 2.9 ± 1.3 pmol/min/mg protein
[3]; [9]
  Vmax: 0.3 ± 0.1 pmol/min/mg protein
[4]; [8]
  Vmax: 0.008 ± 0.001 pmol/min/mg protein
[4]; [10]
  Vmax: 4.4 ± 1.2 pmol/min/mg protein
[4]; [9]
  Vmax: 0.1 ± 0.0 pmol/min/mg protein
[5]; substrate clothianidin 800 µM, goose and quail not analyzed
  Species in which metabolite clothianidin-urea was identified: Chicken, Duck, Rat

## NC1=NCCN1Cc1ccc(Cl)nc1 [dn-imidacloprid, desnitro-imidacloprid]
[1]; compared with imidacloprid
  Affinity for nicotinic acetylcholine receptors: higher affinity for nicotinic acetylcholine receptors than imidacloprid
Fish leukocytes
  Cytotoxicity potency on fish leukocytes: higher cytotoxicity potency on fish leukocytes than their parent substances

## O=[N+]([O-])NC1=NCCN1Cc1ccc(Cl)nc1 [Imidacloprid]
[2]; [11]
  Vmax: 0.1 ± 0.0 pmol/min/mg protein
[2]; [12]
  Vmax: 0.1 ± 0.0 pmol/min/mg protein
[2]; [13]
  Vmax: 0.1 ± 0.0 pmol/min/mg protein
[3]; [11]
  Vmax: 0.1 ± 0.0 pmol/min/mg protein
[3]; [12]
  Vmax: 0.1 ± 0.0 pmol/min/mg protein
[3]; [13]
  Vmax: 0.2 ± 0.0 pmol/min/mg protein
[3]; [14]
  Vmax: 0.03 ± 0.0 pmol/min/mg protein
[4]; [11]
  Vmax: 0.5 ± 0.0 pmol/min/mg protein
[4]; [12]
  Vmax: 0.5 ± 0.0 pmol/min/mg protein
[4]; [13]
  Vmax: 1.0 ± 0.7 pmol/min/mg protein
[4]; [14]
  Vmax: 0.2 ± 0.0 pmol/min/mg protein

## NC(=O)N=C1SCCN1Cc1ccc(Cl)nc1 [thiacloprid-amide]
Fish leukocytes
  Cytotoxicity potency on fish leukocytes: higher cytotoxicity potency on fish leukocytes than their parent substances

## C/C(=N\C#N)N(C)Cc1ccc(Cl)nc1 [Acetamiprid]
[6]; acetamiprid to dm-acetamiprid
  Vmax: 0.3 ± 0.1 pmol/min/mg protein
[7]; acetamiprid to dm-acetamiprid
  Vmax: 1.3 ± 0.2 pmol/min/mg protein
[2]; acetamiprid to dm-acetamiprid
  Vmax: 0.1 ± 0.0 pmol/min/mg protein
[3]; acetamiprid to dm-acetamiprid
  Vmax: 0.4 ± 0.0 pmol/min/mg protein
[4]; acetamiprid to dm-acetamiprid
  Vmax: 1.2 ± 0.0 pmol/min/mg protein
[5]; substrate acetamiprid 800 µM
  Species in which metabolite N-[(6-chloro-3-pyridyl) methyl]-N-methyl acetamidine was identified: Duck, Goose, Quail, Rat
  Species in which metabolite N-desmethyl-acetamiprid was identified: Chicken, Duck, Goose, Quail, Rat
  Species in which metabolite N-methyl(6-chloro-3-pyridyl) methylamine was identified: Chicken, Duck, Goose, Quail, Rat

## CN1COCN(Cc2cnc(Cl)s2)/C1=N\[N+](=O)[O-] [Thiamethoxam]
[6]; thiamethoxam to clothianidin
  Vmax: 0.4 ± 0.1 pmol/min/mg protein
[7]; thiamethoxam to clothianidin
  Vmax: 0.2 ± 0.1 pmol/min/mg protein
[2]; thiamethoxam to clothianidin
  Vmax: 0.1 ± 0.0 pmol/min/mg protein
[3]; thiamethoxam to clothianidin
  Vmax: 0.1 ± 0.0 pmol/min/mg protein
[4]; thiamethoxam to clothianidin
  Vmax: 1.2 ± 0.0 pmol/min/mg protein
[4]; thiamethoxam to dm-clothianidin
  Vmax: 0.01 ± 0.00 pmol/min/mg protein
[5]; substrate thiamethoxam 800 µM
  Species in which metabolite N-desmethyl-thiamethoxam was identified: Chicken, Duck, Goose, Quail, Rat
  Species in which metabolite clothianidin was identified: Chicken, Duck, Goose, Quail, Rat
  Species in which metabolite clothianidin-urea was identified: Chicken, Duck, Goose, Quail, Rat
  Species in which metabolite dm-clothianidin was identified: Chicken
  Species in which metabolite thiamethoxam-urea was identified: Chicken, Duck, Goose, Quail, Rat
